From patent US6841552B1, “3a,4,5,9b-tetrahydro-1H-benz[e]indol-2-yl amine-derived neuropeptide Y receptors ligands useful in the treatment of obesity and other disorders” (Ortho-McNeil Pharmaceutical, Inc., priority 1999, dated 2005)

Legend:
[1] = molecular target: T1, human neuropeptide Y5 receptor (Homo sapiens, UniProt Q15761); experiment: NPY5 HTS centrifugation assay: competition with 125I-PYY for binding to membranes of NPY5-transfected HEK293 cells
T1 construct: expressed in transfected cells; membranes
T1 sequence (Q15761 1-445): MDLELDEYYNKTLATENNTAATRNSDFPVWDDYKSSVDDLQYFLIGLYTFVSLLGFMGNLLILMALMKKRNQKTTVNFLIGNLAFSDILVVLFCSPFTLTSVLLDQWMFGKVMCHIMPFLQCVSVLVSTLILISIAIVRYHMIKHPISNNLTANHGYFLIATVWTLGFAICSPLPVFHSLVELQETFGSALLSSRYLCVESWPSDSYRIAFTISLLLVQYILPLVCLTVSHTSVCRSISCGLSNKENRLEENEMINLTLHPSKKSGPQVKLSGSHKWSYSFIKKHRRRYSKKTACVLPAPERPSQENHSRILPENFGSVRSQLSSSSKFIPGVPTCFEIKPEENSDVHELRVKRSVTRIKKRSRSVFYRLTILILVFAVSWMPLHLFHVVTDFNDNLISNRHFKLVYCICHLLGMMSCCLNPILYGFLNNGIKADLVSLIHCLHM
Experimental: NPY5 HTS Centrifugation Assay
The compounds described in this invention were evaluated for binding to the human neuropeptide Y5 receptor.
The human NPY5 receptor cDNA (Genbank Accession number U66275) was inserted into the vector pClneo (Invitrogen) and transfected into human embryonic kidney cells (HEK-293) via calcium phosphate method (Cullen 1987). Stably transfected cells were selected with G-418 (600 μg/mL). Stably transfected cells served as the source for the membranes for the NPY5 receptor binding assay.
NPY5-transfected HEK293 cells were grown to confluence in 150 cm^2 culture dishes. Cells were washed once with phosphate-buffered saline (Gibco Cat# 14040-133). Cells were then incubated in phosphate-buffered saline without calcium and without magnesium, supplemented with 2 mM EDTA. Cells were incubated for 10 minutes at room temperature and the cells were collected by repetitive pipeting. Cells were formed into pellets and then frozen at −80° C. until needed. Frozen pellets were homogenized with a polytron at full speed for 12 seconds in a homogenization buffer (20 mM Tris HCl, 5 mM EDTA, pH 7.4). Homogenates were centrifuged for 5 minutes at 4° C. at 200 g. Supernatants were transferred to corex tubes and centrifuged for 25 minutes at 28,000 g. Pellets were re-suspended in Binding (20 mM HEPES, 10 mM NaCl, 0.22 mM KH2PO4, 1.3 mM CaCl2, 0.8 mM MgSO4, pH 7.4). Membranes were kept on ice until use.
A competition binding assay, known to those skilled in the art, was used in which compounds of formula A compete with ^125I-PYY for binding to cell membranes. In simple terms, the less ^125I-PYY bound to the membranes implies that a compound is a good inhibitor (competitor). Bound ^125I-PYY is determined by centrifugation of membranes, aspirating supernatant, washing away residual ^125I-PYY and subsequently counting the bound sample in a gcounter.
Compounds to be tested were prepared as 10× stocks in binding buffer and added first to assay tubes (RIA vials, Sarstedt). Twenty (20) μL of each 10× compound stock is pipeted into vials and 80 μL of ^125I-PYY (NEN catalog number NEX240), which has been diluted to a concentration of 200 pM in 0.25% BSA in binding buffer, is added to the compound tubes (final concentration of ^125I-PYY is 80 pM). To each tube is added 100 μL of membranes and the mixture is agitated by pipeting 2 times. Samples are incubated for 1 hr at room temperature. Aluminum cast plates (Sarstedt) containing the vials are then centrifuged 10 minutes at 3200 rpm in a Sorvall RT6000. Supernatant is then aspirated. To each vial 400 μL PBS is added and this is then aspirated again. Vials are then put in carrier polypropylene 12×75 tube and counted in gamma counter (Packard). Non-specific binding is determined in the presence of 300 nM NPY. Percent inhibition of ^125I-PYY binding is calculated by subtracting non-specific binding from the test samples (compound (I)), taking these counts and dividing by total binding, and multiplying by 100. Inhibitory concentration values (IC50) of compounds that show appreciable inhibition of ^125I-PYY binding are calculated by obtaining percent inhibition of ^125I-PYY binding values at different concentrations of the test compound, and using a graphing program such as GraphPad Prism (San Diego, Calif.) to calculate the concentration of test compound that inhibits fifty-percent of ^125I-PYY binding (Table 4).

Food-Deprived Rats = experiment: Rodent feeding model: measurement of food intake in food-deprived rats; type: in vivo, Male Long-Evans rats; conditions: 10 mg/kg i.p.
Description: Measurement of Food Intake in Food-Deprived Rats
Male Long-Evans rats (180-200 grams) are housed individually and are maintained on once-a-day feeding schedule (i.e., 10 a.m. until 4 p.m.) for five days following quarantine to allow the animals to acclimate to feeding on powdered chow (#5002 PMI Certified Rodent Meal) during the allotted time. The chow is made available in a open jar, anchored in the cage by a wire, with a metal follower covering the food to minimize spillage. Water is available ad-libitum.
Animals are fasted for 18 hours prior to testing. At the end of the fasting period, animal are administered either compounds of the invention or vehicle. Vehicle and test compounds are administered either orally (5 mL/kg) 60 minutes prior to the experiment, or 30 minutes prior when given subcutaneously (1 mL/kg) or intraperitoneally (1 mL/kg). Compounds of the invention are administered orally as a suspension in aqueous 0.5% methylcellulose-0.4% Tween 80, or intraperitoneally as a solution or suspension in PEG 200; compound concentrations typically range from 1 mg/kg to 100 mg/kg, preferably from 10-30 mg/kg. Food intake is measured at 2, 4, and 6 hours after administration by weighing the special jar containing the food before the experiment and at the specified times. Upon completion of the experiment, all animals are given a one-week washout period before retesting.
Percent reduction of food consumption is calculated subtracting the grams of food consumed by the treated group from the grams of food consumed by the control group divided by the grams of food consumed by the control group, multiplied by 100. A negative value indicates a reduction in food consumption and a positive value indicates an increase in food consumption. [formula]

COc1ccc2c(c1)CC[C@@H]1N=C(NC[C@H]3CC[C@H](CNS(=O)(=O)c4ccccc4)CC3)C[C@H]21 (relative stereo) [Compound 8, N-[[trans-4-[[(cis-3a,4,5,9b-tetrahydro-7-methoxy-1H-benz[e]indol-2-yl)amino]methyl]cyclohexyl]methyl]benzenesulfonamide]
inhibition at 0.3 µM ([1]; % inhibition of 125I-PYY binding at 300 nM compound, read-out: % Inh @ 300 nM): 85%
inhibition at 3 µM ([1]; % inhibition of 125I-PYY binding at 3 uM compound): 98%
Food Consumption (avg. grams) 0-2 h (Food-Deprived Rats; 0-2 h, 18 h fasted rats): 4.38 g
Food Consumption 0-2 h (% chg.) (Food-Deprived Rats; 0-2 h, change vs vehicle, negative = reduction): (−52%)
Food Consumption (avg. grams) 0-4 h (Food-Deprived Rats; 0-4 h, 18 h fasted rats): 7.88 g
Food Consumption 0-4 h (% chg.) (Food-Deprived Rats; 0-4 h, change vs vehicle, negative = reduction): (−38%)
Food Consumption (avg. grams) 0-6 h (Food-Deprived Rats; 0-6 h, 18 h fasted rats): 12.00 g
Food Consumption 0-6 h (% chg.) (Food-Deprived Rats; 0-6 h, change vs vehicle, negative = reduction): (−43%)
Food Consumption (avg. grams) 2-6 h (Food-Deprived Rats; 2-6 h, 18 h fasted rats): 7.63 g
Food Consumption 2-6 h (% chg.) (Food-Deprived Rats; 2-6 h, change vs vehicle, negative = reduction): (−37%)
